Consider two compounds from patent publication US7074802B2, “Pyrimidine derivatives as selective inhibitors of cox-2” (Glaxo Group Limited, priority 2001, dated 2006).

One assay deals with T1, microsomal h-COX2 (Homo sapiens, UniProt P35354).
T1 construct: made in house; host or cells: baculovirus infected SF9 cells (microsomal preparation)
T1 sequence (P35354 18-604): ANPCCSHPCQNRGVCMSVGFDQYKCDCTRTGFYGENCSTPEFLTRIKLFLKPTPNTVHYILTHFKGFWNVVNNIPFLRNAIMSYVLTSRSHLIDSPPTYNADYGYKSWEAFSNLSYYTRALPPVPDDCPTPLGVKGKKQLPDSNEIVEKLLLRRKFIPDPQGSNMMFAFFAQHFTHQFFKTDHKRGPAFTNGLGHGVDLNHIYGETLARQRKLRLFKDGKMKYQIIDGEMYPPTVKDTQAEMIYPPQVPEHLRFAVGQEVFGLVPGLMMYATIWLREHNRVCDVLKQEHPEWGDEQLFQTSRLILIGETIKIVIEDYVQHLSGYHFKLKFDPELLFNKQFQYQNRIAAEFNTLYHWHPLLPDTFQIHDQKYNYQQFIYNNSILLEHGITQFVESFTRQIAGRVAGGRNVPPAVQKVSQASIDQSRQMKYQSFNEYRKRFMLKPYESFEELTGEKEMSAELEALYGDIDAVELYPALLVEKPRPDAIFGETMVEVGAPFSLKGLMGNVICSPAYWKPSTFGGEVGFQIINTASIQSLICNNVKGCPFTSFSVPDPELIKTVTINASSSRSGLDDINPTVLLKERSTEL
The experiment in a line: Microsomal assay, inhibition of COX-2. In kind it is biochemical. The note with it: microsomal preparation from baculovirus infected SF9 cells; PGE2 by EIA. As to the method: (§1) Inhibitory activity against microsomal h-COX2 was assessed against a microsomal preparation from baculovirus infected SF9 cells. An aliquot of microsomal preparation was thawed slowly on ice and a 1/40,000 dilution prepared from it into the assay buffer (sterile water, degassed with argon containing 100 mM HEPES (pH 7.4), 10 mM EDTA (pH7.4), 1 mM phenol, 1 mM reduced glutathione, 20 mg/ml gelatin and 0.001 mM Hematin). Once diluted the enzyme solution was then sonicated for 5 seconds (Branson sonicator, setting 4, 1 cm tip) to ensure a homogeneous suspension. 155 μl enzyme solution was then added to each well of a 96-well microtitre plate containing either 5 μl test compound (40× required test concentration) or 5 μl DMSO for controls. Plates were then mixed and incubated at room temperature for 1 hour. Following the incubation period, 40 μl of 0.5 μM arachidonic acid was added to each well to give a final concentration of 0.1 μM. Plates were then mixed and incubated for exactly 10 minutes (room temperature) prior to addition of 25 μl 1M HCl (hydrochloric acid) to each well to stop the reaction. 25 μl of 1M NaOH (sodium hydroxide) was then added to each well to neutralise the solution prior to determination of PGE2 levels by enzyme immunoassay (EIA).
(§2) The following IC50 values for inhibition of COX-2 and COX-1 were obtained from the microsomal assay for compounds of the invention: […]

The next assay has as its target COX-1 (Homo sapiens, UniProt P23219). The experiment in a line: Microsomal assay, inhibition of COX-1. In kind it is biochemical. Here is the method:
as §1, §2

As a reminder, the IC50 is the concentration that gives 50% inhibition.

The structures appear in SMILES notation.

COX-1, sequence (P23219 24-599): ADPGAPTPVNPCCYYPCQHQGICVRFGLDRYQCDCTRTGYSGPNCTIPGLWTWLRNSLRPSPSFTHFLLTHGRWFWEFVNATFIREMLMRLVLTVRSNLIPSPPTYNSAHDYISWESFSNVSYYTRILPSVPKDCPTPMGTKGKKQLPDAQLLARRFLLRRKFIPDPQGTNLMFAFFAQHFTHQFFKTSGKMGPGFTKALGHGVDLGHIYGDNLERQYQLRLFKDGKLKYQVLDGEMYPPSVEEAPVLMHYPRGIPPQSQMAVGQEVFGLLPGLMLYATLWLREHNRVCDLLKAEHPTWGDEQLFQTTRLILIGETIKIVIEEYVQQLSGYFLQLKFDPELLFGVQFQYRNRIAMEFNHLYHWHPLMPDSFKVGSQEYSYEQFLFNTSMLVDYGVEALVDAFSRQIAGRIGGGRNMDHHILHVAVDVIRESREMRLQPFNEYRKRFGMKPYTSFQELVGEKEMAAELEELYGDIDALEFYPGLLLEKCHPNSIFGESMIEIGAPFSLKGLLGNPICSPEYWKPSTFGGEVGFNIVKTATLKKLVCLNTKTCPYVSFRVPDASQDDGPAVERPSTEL

In the case of `CCCCNc1nc(CF)cc(-c2ccc(S(C)(=O)=O)cc2)n1` [Example 1, N-Butyl-4-(fluoromethyl)-6-[4-(methylsulfonyl)phenyl]pyrimidin-2-amine], the IC50 is 761 nM on microsomal h-COX2 and over 10000 nM against COX-1.
For `CCCCNc1nc(-c2ccc(S(C)(=O)=O)cc2)cc(C(F)F)n1` [Example 2, N-butyl-4-(difluoromethyl)-6-[4-(methylsulfonyl)phenyl]pyrimidin-2-amine], in that order: 17 nM and over 94000 nM.
